Patent US8846345B2, “Recombinant cell line” (The Queen's University of Belfast, priority 2002, dated 2014)

B2: IL-12 β-chain (p40), carboxyterminally hexahistidine-tagged (HIBERNIA.1 cells, pIND(SP1)-p40H) (ligand)
chain: IWELKKDVYVVELDWYPDAPGEMVVLTCDTPEEDGITWTLDQSSEVLGSGKTLTIQVKEFGDAGQYTCHKGGEVLSHSLLLLHKKEDGIWSTDILKDQKEPKNKTFLRCEAKNYSGRFTCWWLTTISTDLTFSVKSSRGSSDPQGVTCGAATLSAERVRGDNKEYEYSVECQEDSACPAAEESLPIEVMVDAVHKLKYENYTSSFFIRDIIKPDPPKNLQLKPLKNSRQVEVSWEYPDTWSTPHSYFSLTFCVQVQGKSKREKKDRVFTDKTSATVICRKNASISVRAQDRYYSSSWSEWASVPCSHHHHHH
notes: mature; Secreted by HIBERNIA.1 cells as a monomer (about 40 kD) and as a disulfide-bonded homodimer (about 80 kD); also called β chain homodimer (80 kD form)

Columns and labels:
[1] = test system: IL-12 α and β monomer forms; experiment: Inhibitor assay: secretion of IL-12 α and β monomer forms; settings: 16 hr treatment
EcR293 cells = experiment: MTT cytotoxicity test; type: cell-based, human
Experimental: The mitochondrial ...MTT test is widely use as a cytotoxicity test. This test is principally based on the propensity of mitochondrial dehydrogenases to cleave the tetrazolium ring of. The viability of cells is proportional to the activity of mitochondrial dehydrogenases. Cleavage of the tetrazolium ring results in the formation of purple formazan crystals. We used the MTT assay to quantify cytotoxicity of celecoxib on EcR293 cells. The test was performed in 96-well plates in which 10^5 cells per well were plated the day before application of the MTT test. Following addition of celecoxib to the culture medium, cells were induced by ponasterone A, as explained before. After 16 hours of induction, the MTT reagent (10 μl of 100 mg/ml stock solution) was added to the cells. Two hours later, the medium was removed, and the cells were dissolved in DMSO. DMSO solubilizes formazan crystals. Absorbance was measured at 550 nm using a 96-well plate spectrophotometer.

mRNA of IL-12 = experiment: Effect on IL-12 mRNA; type: cell-based, human
[2] = target: the molecule itself; experiment: non-reducing SDS-PAGE of medium of recombinant cell lines secreting the α chain
[3] = target: B2; experiment: co-expression; non-reducing and reducing SDS-PAGE with anti-α-chain and anti-β-chain immunoblots
[4] = target: the molecule itself; experiment: non-reducing SDS-PAGE and anti-β-chain immunoblot of secreted fraction

What does the source list for `CNc1ccc2oc(C[C@H]3O[C@@]4(CC[C@H]3C)O[C@H]([C@H](C)C(=O)c3ccc[nH]3)[C@H](C)C[C@H]4C)nc2c1C(=O)O` [A23187]?
secretion of IL-12 α and β monomer forms [1]: suppressed by neither; concentration at which toxicity was observed (MTT test) (EcR293 cells; 16 hr test period): > 10 µM

How did the “effect on mRNA of IL-12” value (mRNA of IL-12) turn out when `Cc1ccc(-c2cc(C(F)(F)F)nn2-c2ccc(S(N)(=O)=O)cc2)cc1` [Celecoxib, 4-[5-(4-methylpheny)-3-(trifluoromethyl)-IH-pyrazol-I-yl]benzenesulfonamide] was run?
Its value is “no effect”.

What about the “concentration at which toxicity was observed (MTT test)” value (EcR293 cells; human, 16 h) of the same molecule?
The value was at least 100 µM.

How did the “secretion of IL-12 α and β monomer forms” value [1] turn out when `C/C=C(/C)C(=O)O[C@H]1C(C)=C2[C@H]([C@@H]1OC(=O)CCCCCCC)[C@@](C)(OC(C)=O)C[C@H](OC(=O)CCC)[C@@]1(O)[C@H]2OC(=O)[C@@]1(C)O` [thapsigargin] was run?
Its value is “suppressed by neither”.

And the “concentration at which toxicity was observed (MTT test)” value (EcR293 cells; human, 16 h)?
The value was 5 to 10 µM.

B1: IL-12 α-chain (p35), carboxyterminal hexahistidine-tagged (ligand)
chain: RNLPVATPDPGMFPCLHHSQNLLRAVSNMLQKARQTLEFYPCTSEEIDHEDITKDKTSTVEACLPLELTKNESCLNSRETSFITNGSCLASRKTSFMMALCLSSIYEDLKMYQVEFKTMNAKLLMDPKRQIFLDQNMLAVIDELMQALNFNSETVPQKSSLEEPDFYKTKIKLCILLHAFRIRAVTIDRVMSYLNASHHHHHH
notes: mature; Expressed in EcR293 or HIBERNIA.1 cells from pIND-p35H or pIND(SP1)-p35H; N-glycosylated; also called p35H; His-tagged α-chain
Which results are given for B1?
binding result [2]: no binding; binding result [3]: binds

Does B2 bind [4]?
Result: binds
